According to patent US4292317A, “1,4-Dihydro-quinoline-3-carboxylic acid derivatives, process for their preparation and compositions containing them” (Laboratorie Roger Bellon, priority 1977, dated 1981):
Converted amounts (≈) assume the structure as drawn.

Experiments:
Arizona 6.211 = assay: M.I.C. in vitro, nutrient agar dilution; type: cell-based; conditions: 18 h; Table III; Arizona 6.211; read-out: M.I.C.
Experimental: (§1) After sterilisation at 120° C., the pH was 6.8.
(§2) The minimum inhibitory concentrations (M.I.C.) were determined by dilution of the test compounds in this mixture, the concentration ranging from 0.05 to 100 μg/cm^3 in a geometric progression with a factor of 2.
(§3) The inoculation of the dishes was carried out by means of a multiple inoculator with 10^-3 dilutions of 18 hour old broth cultures.
(§4) The dishes were placed in an oven at 37° C. and the readings were taken afer an incubation time of 18 hours. The M.I.C. was taken as the lowest concentration which inhibited a culture.

B. subtilis = assay: M.I.C. in vitro, nutrient agar dilution; type: cell-based; conditions: Bacillus subtilis, 18 h; Table III; B. Subtilis; read-out: M.I.C.
Experimental: as §1, §2, §3, §4

Bord. bronchis. 4.617 = assay: M.I.C. in vitro, nutrient agar dilution; type: cell-based; conditions: 18 h; Table III; Bord. bronchis. 4.617; read-out: M.I.C.
Experimental: as §1, §2, §3, §4

Esch. coli 111 B4 = assay: M.I.C. in vitro, nutrient agar dilution; type: cell-based; conditions: Escherichia coli, 18 h; Table III; Esch. coli 111 B4
Experimental: as §1, §2, §3, §4

Esch. coli 54.127 O.M.S. = assay: M.I.C. in vitro, nutrient agar dilution; type: cell-based; conditions: Escherichia coli, 18 h; Table III; Esch. coli 54.127 O.M.S.; read-out: M.I.C.
Experimental: as §1, §2, §3, §4

Esch. coli 95 I.S.M. = assay: M.I.C. in vitro, nutrient agar dilution; type: cell-based; conditions: Escherichia coli, 18 h; Table III; Esch. coli 95 I.S.M.; read-out: M.I.C.
Experimental: as §1, §2, §3, §4

Klebs. pneum. 10.031 = assay: M.I.C. in vitro, nutrient agar dilution; type: cell-based; conditions: 18 h; Table III; Klebs. pneum. 10.031; read-out: M.I.C.
Experimental: as §1, §2, §3, §4

Pr. mirabilis Nig = assay: M.I.C. in vitro, nutrient agar dilution; type: cell-based; conditions: Proteus mirabilis, 18 h; Table III; Pr. mirabilis Nig; read-out: M.I.C.
Experimental: as §1, §2, §3, §4

Pr. morganii A.236 = assay: M.I.C. in vitro, nutrient agar dilution; type: cell-based; conditions: Morganella morganii, 18 h; Table III; Pr. morganii A. 236; read-out: M.I.C.
Experimental: as §1, §2, §3, §4

Pr. vulgaris 12-53 = assay: M.I.C. in vitro, nutrient agar dilution; type: cell-based; conditions: Proteus vulgaris, 1253, 18 h; Table III; Pr. vulgaris 12-53; read-out: M.I.C.
Experimental: as §1, §2, §3, §4

Providentia 0223 = assay: M.I.C. in vitro, nutrient agar dilution; type: cell-based; conditions: 18 h; Table III; Providentia 0223; read-out: M.I.C.
Experimental: as §1, §2, §3, §4

Ps. aeruginosa 72.345 = assay: M.I.C. in vitro, nutrient agar dilution; type: cell-based; conditions: Pseudomonas aeruginosa, 18 h; Table III; Pd. aeruginosa 72.345; read-out: M.I.C.
Experimental: as §1, §2, §3, §4

Ps. aeruginosa A.22 = assay: M.I.C. in vitro, nutrient agar dilution; type: cell-based; conditions: Pseudomonas aeruginosa, 18 h; Table III; Ps. aeruginosa A.22; read-out: M.I.C.
Experimental: as §1, §2, §3, §4

S. enteritidis Danysz = assay: M.I.C. in vitro, nutrient agar dilution; type: cell-based; conditions: Salmonella enterica, 18 h; Table III; S. enteritidis Danysz; read-out: M.I.C.
Experimental: as §1, §2, §3, §4

S. oranienburg 1066 = assay: M.I.C. in vitro, nutrient agar dilution; type: cell-based; conditions: Salmonella enterica, 18 h; Table III; S. oranienburg 1066; read-out: M.I.C.
Experimental: as §1, §2, §3, §4

Serratia = assay: M.I.C. in vitro, nutrient agar dilution; type: cell-based; conditions: 18 h, Table III, read-out: M.I.C.
Experimental: as §1, §2, §3, §4

Sh. sonnei I.P.S. = assay: M.I.C. in vitro, nutrient agar dilution; type: cell-based; conditions: Shigella sonnei, 18 h; Table III; Sh. sonnei I.P.S.; read-out: M.I.C.
Experimental: as §1, §2, §3, §4

Staph. 209 P = assay: M.I.C. in vitro, nutrient agar dilution; type: cell-based; conditions: 18 h; Table III; Staph. 209 P; read-out: M.I.C.
Experimental: as §1, §2, §3, §4

Staph. 9.144 = assay: M.I.C. in vitro, nutrient agar dilution; type: cell-based; conditions: 18 h; Table III; Staph. 9.144; read-out: M.I.C.
Experimental: as §1, §2, §3, §4

Strepto A 561 = assay: M.I.C. in vitro, nutrient agar dilution; type: cell-based; conditions: 18 h; Table III; Strepto A 561
Experimental: as §1, §2, §3, §4

Strepto D.M. 19 = assay: M.I.C. in vitro, nutrient agar dilution; type: cell-based; conditions: 18 h; Table III; Strepto D.M. 19; read-out: M.I.C.
Experimental: as §1, §2, §3, §4

Salm. typhi 0901 = assay: microbe, parasite or virus in culture; type: cell-based; conditions: Salmonella enterica, 18 h; Table III; Salm. typhi 0901
Experimental: as §1, §2, §3, §4

Escherichia coli P 5101 [1] = assay: Systemic infection in mice; type: in vivo; conditions: P5101, po, 168 h, mice, p.o. at infection and 6 hours later, E. coli P 5101, 7 days
Experimental: (§5) The activity of the compounds according to the invention against systemic infections in mice, caused by Staphylococcus 50,774, Streptococcus pyogenes A 65, Pseudomonas aeruginosa No. 12 and Escherichia coli P 5101, has been studied.
(§6) The infections were set up by intraperitoneal injection of a suspension of the bacterial culture corresponding to the germ studied. The products were administered orally at the time of injection, and 6 hours later. […] Aureus and for 7 days for the other germs.
(§7) Oxolinic acid was used as the reference substance.

[2] = test system: Pseudomonas aeruginosa No. 12; assay: Systemic infection in mice; type: in vivo; conditions: po, 168 h, mice, p.o. at infection and 6 hours later, P. aeruginosa No. 12, 7 days
Experimental: as §5, §6, §7

Staph. aureus 50,774 [3] = assay: Systemic infection in mice; type: in vivo; conditions: Staphylococcus aureus, po, 336 h, mice, p.o. at infection and 6 hours later, Staph. aureus 50,774, 14 days
Experimental: as §5, §6, §7

Strept. pyogenes A. 65 [4] = assay: Systemic infection in mice; type: in vivo; conditions: Streptococcus pyogenes, po, 168 h, mice, p.o. at infection and 6 hours later, Strept. pyogenes A. 65, 7 days
Experimental: as §5, §6, §7

Escherichia coli P 5101 [5] = assay: M.I.C. for germ used in experimental infection; type: cell-based; conditions: P5101, 18 h, Table 4, E. coli P 5101, read-out: M.I.C.
Experimental: as §1, §2, §3, §4

[6] = test system: Pseudomonas aeruginosa No. 12; assay: M.I.C. for germ used in experimental infection; type: cell-based; conditions: 18 h, Table 4, P. aeruginosa No. 12, read-out: M.I.C.
Experimental: as §1, §2, §3, §4

Staph. aureus 50,774 [7] = assay: M.I.C. for germ used in experimental infection; type: cell-based; conditions: Staphylococcus aureus, 18 h; Table 4; Staph. aureus 50,774; read-out: M.I.C.
Experimental: as §1, §2, §3, §4

Strept. pyogenes A. 65 [8] = assay: M.I.C. for germ used in experimental infection; type: cell-based; conditions: Streptococcus pyogenes, 18 h; Table 4; Strept. pyogenes A. 65; read-out: M.I.C.
Experimental: as §1, §2, §3, §4

in vivo = conditions: mouse, mice

Question: For C=CCN1CCN(c2cc3c(cc2F)c(=O)c(C(=O)O)cn3CC)CC1 [Example 23, 7-(4-Allylpiperazinyl)-1-ethyl-6-fluoro-4-oxo-1,4-dihydro-quinoline-3-carboxylic acid], which MIC (Arizona 6.211) is on record?
Answer: 0.2 to 0.8 µg/mL (≈ 0.556 to 2.23 µM)

Question: And the MIC (B. subtilis)?
Answer: 0.1 to 0.2 µg/mL (≈ 0.278 to 0.556 µM)

Question: What about the MIC (Bord. bronchis. 4.617) of the same compound?
Answer: 3.12 µg/mL (≈ 8.68 µM)

Question: What about the MIC (Esch. coli 111 B4) of the same compound?
Answer: 0.2 to 0.8 µg/mL (≈ 0.556 to 2.23 µM)

Question: And the MIC (Esch. coli 54.127 O.M.S.)?
Answer: 0.1 to 0.8 µg/mL (≈ 0.278 to 2.23 µM)

Question: What about the MIC (Esch. coli 95 I.S.M.) of the same compound?
Answer: 0.1 to 0.4 µg/mL (≈ 0.278 to 1.11 µM)

Question: What about the MIC (Klebs. pneum. 10.031) of the same compound?
Answer: 0.1 to 0.2 µg/mL (≈ 0.278 to 0.556 µM)

Question: And the MIC (Pr. mirabilis Nig)?
Answer: 0.4 to 0.8 µg/mL (≈ 1.11 to 2.23 µM)

Question: And the MIC (Pr. morganii A.236)?
Answer: 0.2 µg/mL (≈ 0.556 µM)

Question: What about the MIC (Pr. vulgaris 12-53) of the same compound?
Answer: 0.2 to 0.4 µg/mL (≈ 0.556 to 1.11 µM)

Question: What about the MIC (Providentia 0223) of the same compound?
Answer: 1.6 to 6.2 µg/mL (≈ 4.45 to 17.3 µM)

Question: What about the MIC (Ps. aeruginosa 72.345) of the same compound?
Answer: 3.12 µg/mL (≈ 8.68 µM)

Question: What about the MIC (Ps. aeruginosa A.22) of the same compound?
Answer: 1.6 to 3.12 µg/mL (≈ 4.45 to 8.68 µM)

Question: What about the MIC (S. enteritidis Danysz) of the same compound?
Answer: 0.4 µg/mL (≈ 1.11 µM)

Question: And the MIC (S. oranienburg 1066)?
Answer: 6.2 to 12.5 µg/mL (≈ 17.3 to 34.8 µM)

Question: And the MIC (Serratia)?
Answer: 0.025 µg/mL (≈ 0.0696 µM)

Question: What about the MIC (Sh. sonnei I.P.S.) of the same compound?
Answer: 0.1 to 0.2 µg/mL (≈ 0.278 to 0.556 µM)

Question: What about the MIC (Staph. 209 P) of the same compound?
Answer: 0.1 to 0.2 µg/mL (≈ 0.278 to 0.556 µM)

Question: And the MIC (Staph. 9.144)?
Answer: 0.2 µg/mL (≈ 0.556 µM)

Question: And the MIC (Strepto A 561)?
Answer: 1.6 to 6.2 µg/mL (≈ 4.45 to 17.3 µM)

Question: And the MIC (Strepto D.M. 19)?
Answer: 0.8 to 3.15 µg/mL (≈ 2.23 to 8.76 µM)

Question: And the MIC (Salm. typhi 0901)?
Answer: 0.1 to 0.4 µg/mL (≈ 0.278 to 1.11 µM)

Question: And the ED50 (Escherichia coli P 5101 [1]; read-out: ED50)?
Answer: 2.9 mg/kg

Question: And the ED90 (Escherichia coli P 5101 [1]; read-out: ED90)?
Answer: 5.2 mg/kg

Question: What about the ED50 ([2]; read-out: ED50) of the same compound?
Answer: 13.3 mg/kg

Question: And the ED90 ([2]; read-out: ED90)?
Answer: 26.9 mg/kg

Question: And the ED50 (Staph. aureus 50,774 [3]; read-out: ED50)?
Answer: 5.2 mg/kg

Question: What about the ED90 (Staph. aureus 50,774 [3]; read-out: ED90) of the same compound?
Answer: 17 mg/kg

Question: And the ED50 (Strept. pyogenes A. 65 [4]; read-out: ED50)?
Answer: 64.7 mg/kg

Question: What about the ED90 (Strept. pyogenes A. 65 [4]; read-out: ED90) of the same compound?
Answer: 130 mg/kg

Question: What about the MIC (Escherichia coli P 5101 [5]) of the same compound?
Answer: 0.39 µg/mL (≈ 1.09 µM)

Question: What about the MIC [6] of the same compound?
Answer: 6.25 µg/mL (≈ 17.4 µM)

Question: What about the MIC (Staph. aureus 50,774 [7]) of the same compound?
Answer: 0.39 µg/mL (≈ 1.09 µM)

Question: What about the MIC (Strept. pyogenes A. 65 [8]) of the same compound?
Answer: 3.13 µg/mL (≈ 8.71 µM)

Question: And the LD50 (in vivo; iv)?
Answer: 177 mg/kg

Question: What about the LD50 (in vivo; po) of the same compound?
Answer: > 2000 mg/kg
